Data: patent US20130219529A1, “PROBE FOR A HAIR CELL, AND LABELLING METHOD FOR A HAIR CELL USING THE PROBE FOR A HAIR CELL” (CANON KABUSHIKI KAISHA, priority 2008, published 2013)

Columns and labels:
[1] = test system: hair cell (neuromast) of Zebrafish; experiment: Staining of hair cell (neuromast) of Zebrafish juveniles with probe, fluorescence stereomicroscope image visually evaluated; type: in vivo; design: Fluorescence intensity: key to the marks not given beside the values; conditions: dye concentration 1 μg/mL; for Fluorescence intensity / Staining pattern: 1 hour, Zebrafish juveniles Day 7 after fertilization; for Pattern of the neuromast stained (FIGS. 1 to 3): Zebrafish juveniles, in words
Protocol: A staining compound (1) was dissolved in DMSO to prepare a stock solution at a concentration of 1 mg/mL. The stock solution was diluted with distilled water to prepare a hair cell staining solution 1 having a dye concentration of 1 μg/mL. Further, Egg Water was prepared by dissolving artificial seawater SEALIFE (manufactured by Marinetech Co., Ltd.) in distilled water at a concentration of 60 mg/L. Five juveniles (embryos on Day 7 after fertilization) of Zebrafish were placed into any one of wells of a 24-well multiwell plate together with feeding water. The feeding water was discharged and 1 mL of the hair cell staining solution 1 was added. After the whole had been left to stand for 1 hour, the hair cell staining solution 1 in the well was discharged and replaced by 1 mL of fresh Egg Water. In addition, such an operation that Egg Water was discharged and replaced by 1 mL of fresh Egg Water was repeated twice. One of the juveniles was taken out from the well onto a dish, the motion of the juvenile was restricted by addition of methylcellulose, and a fluorescence image was captured with a fluorescence stereomicroscope. MZ16FA manufactured by Leica Microsystems K.K. was used as a stereoscopic microscope.
An image pickup unit (a digital camera DP72 for a microscope manufactured by Olympus Corporation) of a fluorescence stereomicroscope was remodeled by removing an IR cut filter so as to capture a fluorescence image in a near-infrared wavelength region.

[2] = Excitation and fluorescence emission wavelength measured with fluorescence spectrophotometer; type: physicochemical; conditions: aqueous solution, 10 mg/mL DMSO solution diluted 500-fold with purified water
[3] = test system: neuromast (hair cell) of Zebrafish; experiment: Staining intensity of neuromast at different concentrations of staining agent (fluorescence intensity per unit intake time); type: in vivo; conditions: 10, 30 and 100 ng/mL staining solutions, intensity/msec
Protocol: The compounds (43), (54), and (65) were selected as probes for a hair cell, and compared with FM1-43. Three kinds of staining solutions containing those staining agents were prepared at concentrations of 10 ng/mL, 30 ng/mL, and 100 ng/mL. Juveniles of (embryos on Day 7 after fertilization) of Zebrafish were stained in the same manner as that in Example 1. When a fluorescence image is acquired with a fluorescence stereomicroscope, the fluorescence intensity per unit intake time (intensity/msec) was calculated by changing an intake time (exposure time) and dividing the fluorescence intensity (Relative Fluorescence Unit, RFU) of a neuromast of the obtained fluorescence image by the intake time.

[4] = test system: juvenile neuromast (hair cell) of Zebrafish; experiment: Change in staining intensity of neuromast due to morpholino knockdown of target genes (SLC25A12, TRPC2); type: in vivo; conditions: for Ratio of staining intensity (KD/control): juveniles Day 7
Protocol: In order to knockdown a specific gene, a mixed solution containing a morpholino antisense oligonucleotide (MO) was prepared. MO was synthesized by using GeneTools, LLC (Philomath, Oreg.). A morpholino antisense oligonucleotide (atgMO) designed so that the translation from a start codon to a protein would be inhibited was dissolved in distilled water to prepare a MO mixed solution having the following composition.
A fertilized embryo within 1 hour after fertilization (before a second cleavage period) of Zebrafish was microinjected with the MO mixed solution. A capillary made of glass (inner diameter: 0.6 mm) having a sharp extremity obtained by extending and cutting a glass tube with a PC-10 puller (manufactured by Narishige Co., Ltd.) and grinding the cross section with a EG-400 grinder (manufactured by Narishige Co., Ltd.) was used for the microinjection. Feeding water and the fertilized embryo were placed into a 10-cm dish in which 1% agarose had been bedded, and the microinjection was performed under a stereoscopic microscope. During injection, one of a manual injector IM-9A (manufactured by Narishige Co., Ltd.) and an electrical microinjector IM-30 (manufactured by Narishige Co., Ltd.) was connected to the capillary made of glass, to thereby perform infusion with pressure. The infusion amount of MO was set to 1 to 10 ng per fertilized embryo.
Because the MO mixed solution is supplemented with a dye (0.005% phenol red), the success or failure of the infusion of the MO mixed solution may be confirmed with the naked eye. Further, because the MO mixed solution is supplemented with a fluorescent protein expression vector (EGFP), on Day 3 after infusion, the success or failure of the microinjection can be confirmed after the fertilized embryo has hatched (a sample in which a signal derived from the fluorescent protein was observed also retains MO in Zebrafish).
Juveniles (embryos on Day 7 after fertilization) of Zebrafish were stained in the same manner as that in Example 1, and a change in staining condition of the hair cell was measured.
The compound (54) was selected as the probe for a hair cell and compared with FM1-43. Further, SLC25A12 and TRPC2 were selected as target genes. The staining intensity of a juvenile neuromast having unknockdown genes was used as a control, and compared with the staining intensity of a juvenile neuromast in which each of the target genes has been knockdown by representing a fluorescence image obtained with a stereoscopic microscope in numerical values.

Excitation wavelength λex [2]	Fluorescence emission wavelength λem [2]	SMILES	Fluorescence intensity [1]	further results
459 nm	564 nm	CCC(=C\c1oc2ccc(-c3ccccc3)cc2[n+]1CC)/C=C1/Oc2ccc(-c3ccccc3)cc2N1CC [compound 16]	+++	Staining pattern [1]: S
509 nm	578 nm	CCC[N+](CCC)=c1ccc2c(-c3ccccc3S(=O)(=O)O)c3ccc(Nc4c(C)cccc4C)cc3oc-2c1.[Na+] [compound 60]	+++	
354 nm	469 nm	CCN1/C(=C\C(C)=C\c2sc3c4ccccc4ccc3[n+]2CC)Sc2c1ccc1ccccc21 [compound 47]	+++	
670 nm	700 nm	CN1\C(=C/C=C/C=C/C2=[N+](C)c3ccc4ccccc4c3C2(C)C)C(C)(C)c2c1ccc1ccccc21 [compound 69]	+++	
611 nm	720 nm	CC1(C)C(/C=C/c2ccc3c(c2)C2CCCC2N3c2ccc(C=C(c3ccccc3)c3ccccc3)cc2)=[N+](CCC(=O)O)c2ccccc21 (stereo not shown) [compound 51]	+++	Staining pattern [1]: S
		COc1ccc(N2c3ccc(/C=C/C4=[N+](C)c5ccccc5C4(C)C)cc3C3CCCC32)cc1 (stereo not shown) [Staining compound 53]		Pattern of the neuromast stained (FIGS. 1 to 3) [1]: both a portion with a bigger neuromast and a portion with a smaller neuromast are simultaneously stained
560 nm	628 nm	CCN1/C(=C\C(C)=C\c2sc3ccccc3[n+]2CC)Sc2ccccc21 [compound 45]	+++	
490 nm	560 nm	CCCC/N=c1/ccc2c(-c3ccccc3S(=O)(=O)O)c3ccc(NCCCC)cc3oc-2c1 [compound 63]	+++	
560 nm	677 nm	COc1ccc(N2c3ccc(/C=C/c4sc5ccccc5[n+]4CC(=O)O)cc3C3CCCC32)cc1 (stereo not shown) [compound 8]	+++	
		CCN1/C(=C\C=C\c2sc3ccccc3[n+]2CC)Sc2ccccc21 [Staining compound 65]		Staining intensity of the hair cell compared with FM1-43 (FIG. 4) [3]: higher
730 nm	760 nm	CN1/C(=C/C=C/C=C/C=C/C2=[N+](C)c3ccccc3C2(C)C)C(C)(C)c2ccccc21 [compound 68]	+++	
		O=S(=O)(O)CCN1/C(=C\C=C\c2oc3ccc(-c4ccccc4)cc3[n+]2CCS(=O)(=O)O)Oc2ccc(-c3ccccc3)cc21 [Staining compound 25]		Pattern of the neuromast stained (FIGS. 1 to 3) [1]: a portion with a smaller neuromast is selectively stained
545 nm	636 nm	O=C(O)C[n+]1c(/C=C/c2ccc3c(c2)C2CCCC2N3c2ccccc2)sc2ccccc21 (stereo not shown) [compound 6]	+++	
503 nm	627 nm	CCCCN(CCCC)c1ccc(/C=C/c2cc[n+](CCC[N+](CC)(CC)CC)cc2)cc1.[Br-].[Br-] [FM1-43, reference compound]	+++	Increase of staining properties by knockdown of SLC25A12 and TRPC2 genes ([4]; each of SLC25A12 and TRPC2 knockdown): about 30%; Ratio of staining intensity (KD/control) ([4]; target gene SLC25A12 knockdown): 1.36; Ratio of staining intensity (KD/control) ([4]; target gene TRPC2 knockdown): 1.35
429 nm	503 nm	CC(=C\c1oc2ccccc2[n+]1CCC(=O)O)/C=C1/Oc2ccccc2N1CCC(=O)O [compound 28]	+++	
480 nm	509 nm	O=S(=O)(O)c1ccccc1-c1c2cc/c(=N/CCO)cc-2oc2cc(NCCO)ccc12 [compound 58]	+++	
470 nm	558 nm	O=S(=O)(O)CCN1/C(=C\C=C\c2oc3ccc(-c4ccccc4)cc3[n+]2CCS(=O)(=O)O)Oc2ccc(-c3ccccc3)cc21 [compound 25]	+++	Staining pattern [1]: S
473 nm	564 nm	CN1/C(=C\C=C\C2=[N+](C)c3ccccc3C2(C)C)C(C)(C)c2ccccc21 [compound 43]	+++	
563 nm	569 nm	CCC(=C\c1sc2ccccc2[n+]1CC)/C=C1/Sc2ccccc2N1CC [compound 39]	+++	
750 nm	780 nm	CCN1/C(=C/C=C/C=C/C=C/C2=[N+](CC)c3ccccc3C23CCCCC3)C2(CCCCC2)c2ccccc21 [compound 67]	+++	
		CCN1C=C/C(=C/C=C/c2oc3ccccc3[n+]2CC)c2ccccc21 [Staining compound 50]		Pattern of the neuromast stained (FIGS. 1 to 3) [1]: a portion with a bigger neuromast is selectively stained
570 nm	657 nm	O=C(O)C[n+]1c(/C=C/c2ccc3c(c2)C2CCCC2N3c2ccc(C=C(c3ccccc3)c3ccccc3)cc2)oc2ccccc21 (stereo not shown) [compound 1]	+++	
401 nm	516 nm	COc1ccc2cc(N3c4ccc(/C=C/c5sc6ccccc6[n+]5CC(=O)O)cc4C4CCCC43)ccc2c1 (stereo not shown) [compound 4]	+++	
344 nm	381 nm	CCC(=C\c1sc2c3ccccc3ccc2[n+]1CC)/C=C1/Sc2c(ccc3ccccc23)N1CC [compound 40]	+++	
614 nm	669 nm	COc1ccc(N2c3ccc(/C=C/C4=[N+](C)c5ccccc5C4(C)C)cc3C3CCCC32)cc1 (stereo not shown) [compound 53]	+++	
566 nm	611 nm	O=C(O)C[n+]1c(/C=C/c2ccc3c(c2)C2CCCC2N3Cc2ccccc2)sc2ccccc21 (stereo not shown) [compound 15]	+++	
571 nm	620 nm	CCN1C=C/C(=C/C=C/c2oc3ccccc3[n+]2CC)c2ccccc21 [compound 50]	+++	
660 nm	690 nm	CCN1C=C/C(=C\C=c2\s/c(=C/c3sc4ccccc4[n+]3CC)n(CC)c2=O)c2ccccc21 [compound 70]	+++	

SMILES	Excitation wavelength λex [2]	Fluorescence emission wavelength λem [2]	Fluorescence intensity [1]	further results
CCCCNS(=O)(=O)c1ccc(-c2c3ccc(=[N+](CC)CC)cc-3oc3cc(N(CC)CC)ccc23)c(S(=O)(=O)O)c1.[Na+] [compound 57]	570 nm	589 nm	+++	
CC/N=c1\cc2oc3cc(NCC)c(C)cc3c(-c3ccccc3C(=O)OCC)c-2cc1C [compound 54]	528 nm	550 nm	+++	
